# Values quoted from earlier work in US8372933B2, “Hyperbranched polymers based on cyclodextrins and poly (amidoamines) for the controlled release of insoluble drugs” (L'Urederra Fundacion Para el Desarrollo Tecnologico y Social, priority 2007, dated 2013).
# Details: oral
smiles,measurement,value
Nc1nc2c(ncn2COCCO)c(=O)[nH]1 [Acyclovir],bioavailability,15-30%
